Values after ≈ are worked out from the molar mass of the structure shown.
Assays:
Type in all cases: functional
[1] = tested on: Enterococcus hirae; experiment: Minimal inhibitory concentration against Enterococcus hirae (strain CIP 5855) after 48 hr of incubation was evaluated; settings: CIP 5855, 48 h
[2] = tested on: Escherichia coli; experiment: Minimal inhibitory concentration against Escherichia coli (strain 54127) after 48 hr of incubation was evaluated
[3] = tested on: Saccharomyces cerevisiae; experiment: Minimal inhibitory concentration against Saccharomyces cerevisiae (strain ATC 28383) after 48 hr of incubation was evaluated
[4] = tested on: Candida albicans; experiment: Minimal inhibitory concentration against Candida albicans (strain CIP 1180-79) after 48 hr of incubation was evaluated; settings: CIP 1180-79, 48 h
[5] = tested on: Staphylococcus aureus; experiment: Minimal inhibitory concentration against Staphylococcus aureus (strain CIP 54127) after 48 hr of incubation was evaluated; settings: CIP 54127, 48 h
[6] = tested on: Candida albicans; experiment: Minimal inhibitory concentration against Candida albicans (strain CIP 1180-79) after 48 hr of incubation was evaluated; Range = 4 - 8 ug/mL; settings: CIP 1180-79, 48 h

Row | MIC [1] | MIC [2] | MIC [3] | MIC [4] | MIC [5] | MIC [6] | Structure (SMILES)
1 | 3.12 µg/mL (≈ 5.89 µM) | 6.25 µg/mL (≈ 11.8 µM) | 3.12 µg/mL (≈ 5.89 µM) | 6.25 µg/mL (≈ 11.8 µM) | 3.12 µg/mL (≈ 5.89 µM) |  | CC(C)CCC[C@@H](C)[C@H]1CCC2C3C(CC[C@@]21C)[C@@]1(C)CC[C@H](O)CC1=C[C@H]3NCCCNCCCCN (stereo partly drawn)
2 | 6.25 µg/mL (≈ 11.8 µM) | 3.12 µg/mL (≈ 5.89 µM) | 3.12 µg/mL (≈ 5.89 µM) | 3.12 µg/mL (≈ 5.89 µM) | 6.25 µg/mL (≈ 11.8 µM) |  | CC(C)CCC[C@@H](C)[C@H]1CCC2C3C(CC[C@@]21C)[C@@]1(C)CC[C@H](O)CC1=C[C@@H]3NCCCNCCCCN (stereo partly drawn)
3 |  | > 100 µg/mL |  |  | 1.56 µg/mL (≈ 2.48 µM) | 8 µg/mL (≈ 12.7 µM) | CC(C)[C@@H](CC[C@@H](C)[C@H]1CC[C@H]2[C@@H]3[C@H](O)C[C@H]4C[C@@H](NCCCNCCCCN)CC[C@]4(C)[C@H]3CC[C@]12C)OS(=O)(=O)O [SQUALAMINE]
